Reference: US10729710B2, “Catecholamine prodrugs for use in the treatment of Parkinson's disease” (H. Lundbeck A/S, priority 2017, dated 2020)
Where a name gives a salt, the structure may show the parent alone.

Columns and labels:
[1] = Conversion to compound (I) in fresh human blood; type: in vitro ADME; settings: fresh blood 37° C., 1 μg/mL, 0-60 minutes, FIG. 8b
Procedure: (§1) Conversion of (Id-ia), (Id-ib), (Id-iia) and (Id-iib) in human blood (average of 3 donors) and rat blood (average of 45 donors) to (I) was shown in fresh blood at 37° C. spiked with 1 μg/mL of (Id-ia), (Id-ib), (Id-iia) and (Id-iib) separately, (I) was measured at 0, 5, 15, 30 and 60 minutes in isolated plasma. Analysis method and Instrumentation as described in Examples 4 and 5 below in the section “Instrumentation used for analysis of compound (I) from dosing of compounds (Ic), (Id-ia), (Id-ib), (Id-iia), (Id-iib), (Id-iab) and (Id-iiab).”

[2] = target: human 5-HT2B receptor (Homo sapiens (Human), UniProt P41595); assay: 5-HT2B radioligand binding assay ([125I](±)DOI); settings: 0.2 nM [125I](±)DOI, read-out: 5-HT2B binding affinity (% inhibition of control, specific binding at concentration indicated)
Procedure: Membrane homogenates prepared from CHO cells expressing the human 5HT2B receptor were incubated for 60 min at room temperature with 0.2 nM [125I](±)DOI (1-(4-iodo-2, 5-dimethoxyphenyl)propan-2-amine) in the absence or presence of the test compound in a buffer containing 50 mM Tris-HCl (pH 7.4), 5 mM MgCl2, 10 μM pargyline and 0.1% ascorbic acid. Nonspecific binding is determined in the presence of 1 μM (±)DOI. Following incubation, the samples were filtered rapidly under vacuum through glass fiber filters (GF/B, Packard) presoaked with 0.3% polyethyleneimine (PEI) and rinsed several times with ice-cold 50 mM Tris-HCl using a 96-sample cell harvester (Unifilter, Packard). The filters were dried and counted for radioactivity in a scintillation counter (Topcount, Packard) using a scintillation cocktail (Microscint 0, Packard). The results are expressed as a percent inhibition of the control radioligand specific binding. The standard reference compound was (±)DOI, which was tested in each experiment at several concentrations to obtain a competition curve from which its IC50 is calculated.

[3] = target: human D1 receptor (Homo sapiens (Human), UniProt P21728); assay: Dopamine D1 receptor agonism, HTRF cAMP assay; type: cell-based; settings: for Emax: normalized to 30 uM dopamine = 100%
Procedure: Dopamine D1 receptor agonism was measured using a HTRF cAMP from CisBio using the protocol developed by HD Biosciences (China). Briefly, the assay is a homogeneous time resolved-fluorescence resonance energy transfer (HTRF) assay that measures production of cAMP by cells in a competitive immunoassay between native cAMP produced by cells and cAMP-labeled with XL-665. A cryptate-labeled anti-cAMP antibody visualizes the tracer. The assay was performed in accordance with instructions from manufacturer.
Test compounds were added to wells of microplates (384 format). HEK-293 cells expressing the human D1 receptor were plated at 1000 cells/well and incubated 30 min at room temperature. cAMP-d2 tracer was added to wells and followed by addition of Anti-cAMP antibody-cryptate preparation and incubated for 1 h at room temperature in dark. HTRF cAMP was measured by excitation of the donor with 337 nm laser (the “TRF light unit”) and subsequent (delay time 100 microseconds) measurement of cryptate and d2 emission at 615 nm and 665 nm over a time window of 200 microseconds with a 2000 microseconds time window between repeats/100 flashes). HRTF measurements were performed on an Envision microplate reader (PerkinElmer). The HTRF signal was calculated as the emission-ratio at 665 nm over 615 nm. The HTRF ratio readout for test compounds was normalized to 0% and 100% stimulation using control wells with DMSO-solvent or 30 uM dopamine. Test compound potency (EC50) was estimated by nonlinear regression using the sigmoidal dose-response (variable slope) using Xlfit 4 (IDBS, Guildford, Surrey, UK, model 205). y=(A+((B−A)/(1+((C/x)^D)))) where y is the normalized HTRF ratio measurement for a given concentration of test compound, x is the concentration of test compound, A is the estimated efficacy at infinite compound dilution, and B is the maximal efficacy. C is the EC50 value and D is the Hill slope coefficient. EC50 estimates were obtained from an independent experiment and the logarithmic average was calculated. Dopamine D2 Receptor Agonism

[4] = target: human D2 receptor (Homo sapiens (Human), UniProt P14416); assay: Dopamine D2 receptor agonism, calcium mobilization assay; type: cell-based; settings: for Emax: normalized to 1 μM dopamine = 100%
Procedure: Dopamine D2 receptor agonism was measured using a calcium mobilization assay protocol developed by HD Biosciences (China). Briefly, HEK293/G15 cells expressing human D2 receptor were plated at a density of 15000 cells/well in clear-bottomed, Matrigel-coated 384-well plates and grown for 24 hrs at 37° C. in the presence of 5% CO2. The cells were incubated with calcium-sensitive fluorescent dye, Fluo8, for 60-90 minutes at 37° C. in the dark. Test compounds were prepared at 3-fold concentrated solution in 1×HBSS buffer with Ca^2+ and Mg^2+. Calcium Flux signal was immediately recorded after compounds were added from compound plate to cell plate at FLIPR (Molecular Devices). The fluorescence data were normalized to yield responses for no stimulation (buffer) and full stimulation (1 μM of dopamine) of 0% and 100% stimulation, respectively. Test compound potency (EC50) was estimated by nonlinear regression using the sigmoidal dose-response (variable slope) using Xlfit 4 (IDBS, Guildford, Surrey, UK, model 205). y=(A+((B−A)/(1+((C/x)^D)))) where y is the normalized ratio measurement for a given concentration of test compound, x is the concentration of test compound, A is the estimated efficacy at infinite compound dilution, and B is the maximal efficacy. C is the EC50 value and D is the Hill slope coefficient. EC50 estimates were obtained from independent experiment and the logarithmic average was calculated.

[5] = PK experiments in rats: plasma compound (I) after oral dosing of prodrugs; type: in vivo, Han Wistar rats; settings: Wistar rats, FIG. 2, doses equal to 287 μg/kg of compound (I)
Procedure: Plasma was placed on water-ice following collection. Final storage at approximately −70° C.
Mobile phase B: Acetonitrile. […] Flow rate 0.5 mL/min.
The rats had unrestricted access to the diet.
Mobile phase B: Acetonitrile+0.2% formic acid. […] Flow rate 0.3 mL/min.
Han Wistar rats were supplied by Envigo, UK. […] The rats received a standard laboratory diet Teklad 2014C. The rats had unrestricted access to the diet.

[6] = Conversion to compound (I) in fresh rat blood; type: in vitro ADME; settings: fresh blood 37° C., 1 μg/mL, 0-60 minutes, FIG. 8a
Procedure: as §1

Chain of human D2 receptor (P14416 whole entry): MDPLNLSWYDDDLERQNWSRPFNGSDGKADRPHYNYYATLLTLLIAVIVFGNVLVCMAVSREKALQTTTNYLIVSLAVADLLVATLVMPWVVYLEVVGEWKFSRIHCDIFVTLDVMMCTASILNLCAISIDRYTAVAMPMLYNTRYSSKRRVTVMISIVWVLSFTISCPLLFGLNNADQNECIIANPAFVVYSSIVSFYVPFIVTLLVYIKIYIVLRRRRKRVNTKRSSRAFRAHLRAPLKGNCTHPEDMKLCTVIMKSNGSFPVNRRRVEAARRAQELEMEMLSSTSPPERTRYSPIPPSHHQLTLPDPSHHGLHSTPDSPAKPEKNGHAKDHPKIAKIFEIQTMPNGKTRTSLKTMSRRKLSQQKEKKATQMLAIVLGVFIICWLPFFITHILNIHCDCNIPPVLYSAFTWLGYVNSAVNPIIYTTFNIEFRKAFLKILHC
Chain of human D1 receptor (P21728 whole entry): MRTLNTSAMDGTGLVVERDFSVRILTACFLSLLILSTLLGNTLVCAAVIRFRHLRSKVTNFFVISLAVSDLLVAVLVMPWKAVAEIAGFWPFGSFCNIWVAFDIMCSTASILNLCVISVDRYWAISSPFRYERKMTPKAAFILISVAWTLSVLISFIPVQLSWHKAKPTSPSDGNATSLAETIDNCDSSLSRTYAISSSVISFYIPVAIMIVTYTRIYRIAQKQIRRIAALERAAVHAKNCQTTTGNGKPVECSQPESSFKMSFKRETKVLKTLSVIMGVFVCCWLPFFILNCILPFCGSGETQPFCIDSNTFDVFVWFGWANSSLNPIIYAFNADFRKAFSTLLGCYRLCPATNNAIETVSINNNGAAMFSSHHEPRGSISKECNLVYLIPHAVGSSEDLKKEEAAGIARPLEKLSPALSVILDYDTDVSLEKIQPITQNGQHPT
Chain of human 5-HT2B receptor (P41595 whole entry): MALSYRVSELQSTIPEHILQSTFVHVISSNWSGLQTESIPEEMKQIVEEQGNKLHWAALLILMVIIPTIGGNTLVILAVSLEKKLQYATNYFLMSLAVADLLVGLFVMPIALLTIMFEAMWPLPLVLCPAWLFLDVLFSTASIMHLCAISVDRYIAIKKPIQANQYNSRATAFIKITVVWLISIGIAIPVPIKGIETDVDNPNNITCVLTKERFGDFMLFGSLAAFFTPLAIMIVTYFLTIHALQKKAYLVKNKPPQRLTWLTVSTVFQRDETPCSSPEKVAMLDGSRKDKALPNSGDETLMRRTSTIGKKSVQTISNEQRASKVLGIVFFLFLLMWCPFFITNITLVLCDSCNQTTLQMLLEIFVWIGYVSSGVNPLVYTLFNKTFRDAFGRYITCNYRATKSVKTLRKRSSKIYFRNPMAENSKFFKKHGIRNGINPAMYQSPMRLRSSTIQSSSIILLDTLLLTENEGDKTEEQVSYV

CCCN1CCC[C@@H]2Cc3c(ccc(O)c3O[C@@H]3O[C@H](C(=O)O)[C@@H](O)[C@H](O)[C@H]3O)C[C@H]21 [(Id-ia), (2S,3S,4S,5R,6S)-3,4,5-trihydroxy-6-(((4aR,10aR)-7-hydroxy-1-propyl-1,2,3,4,4a,5,10,10a-octahydrobenzo[g]quinolin-6-yl)oxy)tetrahydro-2H-pyran-2-carboxylic acid]
conversion to compound (I) in human blood [1]: time dependent conversion to compound (I) | inhibition at 10 µM [2]: -25% | in vitro dopaminergic activity (in words) ([3]; D1 and D2, example 2): no in vitro dopaminergic activity | Emax [3]: 98% | Emax [4]: 92% | plasma profile of compound (I) after oral dosing (in words) [5]: slower absorption rate avoiding rapid peak concentrations accompanied by a sustained exposure of compound (I) in plasma | conversion to compound (I) in rat blood [6]: time dependent conversion to compound (I)

CCCN1CCC[C@@H]2Cc3c(ccc(O)c3OS(=O)(=O)O)C[C@H]21 [(Id-iia), (4aR,10aR)-7-hydroxy-1-propyl-1,2,3,4,4a,5,10,10a-octahydrobenzo[g]quinolin-6-yl hydrogen sulfate]
conversion to compound (I) in human blood [1]: time dependent conversion to compound (I) | inhibition at 10 µM [2]: 6% | EC50 ([3]; HEK-293 cells expressing human D1 receptor, cAMP): > 30 µM | Emax [3]: 49% | EC50 ([4]; HEK293/G15 cells expressing human D2 receptor, calcium flux): > 30 µM | Emax [4]: 48% | plasma profile of compound (I) after oral dosing (in words) [5]: slower absorption rate avoiding rapid peak concentrations accompanied by a sustained exposure of compound (I) in plasma | conversion to compound (I) in rat blood [6]: time dependent conversion to compound (I)
